Patent US20160375088A1, “CARDIOLIPIN-TARGETED PEPTIDES INHIBIT BETA-AMYLOID OLIGOMER TOXICITY” (priority 2013, published 2016)

Assays:
Aβ1-42 oligomers [1] = target: T1, Aβ1-42 oligomers (Homo sapiens, UniProt P05067); test: Turbidity (right-angle light scattering at 633 nm) of peptides with Aβ1-42 oligomers; design: purchased Life Technologies; conditions: 40 μM Aβ, Hepes pH 7.4
Procedure: Turbidity Measurements of Aromatic-Cationic Peptides Complexed with Aβ1-42 Oligomers: The turbidity of solutions containing aromatic-cationic peptides and/or Aβ1-42 oligomers was measured via right-angle scattering at λ=633 nm (Hitachi F-4500 Fluorescent Spectrophotometer). All experiments were conducted in Hepes (pH 7.4) and scanned immediately.

Aβ1-42 oligomers [2] = target: T1, Aβ1-42 oligomers; test: Fluorescence emission spectra: interaction of peptide with Aβ1-42 oligomers; format: binding; design: purchased Life Technologies; conditions: for shift of emission on contact with Aβ oligomers: 1 μM Aβ oligomers; for emission maximum (λmax) with Aβ oligomers: 20 mM Hepes pH 7.4, 1 μM Aβ oligomers
From the text: Interaction of Aromatic-cationic Peptides with Aβ1-42 Oligomers:
D-Arg-2′,6′-Dmt-Lys-Ald-NH2 ([ald]SS-31) is an aladan (ald) containing derivative of D-Arg-2′,6′-Dmt-Lys-Phe-NH2 (SS-31). See Birk et al., J Am Soc Nephrol. 24(8): 1250-1261 (2013). […] Thus, interaction between D-Arg-2′,6′-Dmt-Lys-Ald-NH2 ([ald]SS-31) and phospholipids causes an observable shift in the fluorescence spectra of the peptide. See Birk et al., J Am Soc Nephrol. 24(8): 1250-1261 (2013). […] The fluorophore aladan was used as a control. All experiments were conducted in 20 mM Hepes (pH 7.4) so as to replicate an environment with physiological pH.

[3] = target: T2, Aβ1-42-Cardiolipin-Cu^2+ complex (Homo sapiens, UniProt P05067); test: Aβ1-42-Cardiolipin-Cu2+ complex oxygenase activity (Amplex Red, no H2O2); format: biochemical; conditions: for increase in Aβ1-42-mediated oxygenase activity compared to the non-metal treated control: 10 μM metal salt incubated with cardiolipin and Aβ1-42 oligomers; for reduction in Aβ1-42-mediated oxygenase activity compared to untreated controls: 10 μM peptide, 30 μM CuCl2, 50 μM Amplex Red; for reduction in Aβ1-42-mediated oxygenase activity compared to untreated controls / inhibition of Aβ1-42-mediated oxygenase activity compared to untreated controls: 30 μM TLCL; for inhibition of Aβ1-42-mediated oxygenase activity compared to untreated controls: 100 μM peptide; for inhibition of Cu2+-dependent stimulation of Aβ1-42-mediated oxygenase activity, dose dependence: FIG. 4B, varying peptide concentrations
T2 construct: purchased Life Technologies
T2 sequence (P05067 672-713 limits assumed, one chain of several): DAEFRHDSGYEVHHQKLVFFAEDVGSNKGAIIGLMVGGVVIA
Procedure: Oligomerization of Aβ1-42 Peptide: Aβ1-42 peptide was dissolved in 1.5 mL of a 1:1 water/acetonitrile solution. 500 μL aliquots were frozen in a methanol/dry ice cooling bath and then lyophilized. Once lyophilized, each aliquot was dissolved in 20 μL DMSO. The aliquots were then vortexed, centrifuged, and sonicated in a water bath at room temperature. 200 μL of filtered 1×PBS and 20 μL of 2% SDS were subsequently added. The Aβ1-42 peptide solution was incubated at 37° C. for 6 hours. 580 μL of water was subsequently added to the Aβ1-42 peptide solution, followed by a 16 hour incubation at 37° C. prior to being stored at 4° C.
Measurement of Aβ1-42-Cardiolipin-Cu^2+ Complex Oxygenase Activity:
Aβ1-42-Cardiolipin-Cu^2+ oxygenase activity was measured using the Amplex Red kit. Amplex Red is a dye that reacts with H2O2 in a 1:1 stoichiometric ratio to produce a highly fluorescent derivative called resorufin (λex/λem=570/585 nm). The presence of peroxidase activity in an Amplex reaction lacking H2O2 is an indicator of oxygenase activity resulting from the reaction between the Amplex Red reagent and oxygen in the solution. All experiments were conducted in the absence of H2O2. A measurement was immediately taken after the introduction of Amplex Red, the last reagent that was added to the reaction. The reaction was allowed to proceed for an additional 10 minutes. Continuous time course data over the 10-minute period was obtained using a microplate spectrofluorometer (Molecular Devices, Sunnyvale, Calif.).

Aβ1-42 oligomers [4] = target: T1, Aβ1-42 oligomers; test: Transmission electron microscopy of Aβ fibril formation
[5] = 800 nM Aβ oligomers, 30 μM CuCl2

T1 sequence (P05067 672-713 limits assumed): as the sequence (P05067 672-713 limits assumed, one chain of several) above

Row | Molecule | change in light scattering (turbidity) compared to Aβ1-42 oligomer control sample (Aβ1-42 oligomers [1]) | light scattering (Aβ1-42 oligomers [1]) | shift of emission on contact with Aβ oligomers (Aβ1-42 oligomers [2]) | emission maximum (λmax) with Aβ oligomers (Aβ1-42 oligomers [2]; 1 μM, λex=360 nm) [nm] | increase in Aβ1-42-mediated oxygenase activity compared to the non-metal treated control [3] [%] | reduction in Aβ1-42-mediated oxygenase activity compared to untreated controls ([3]; 800 nM Aβ oligomers) [%] | inhibition of Aβ1-42-mediated oxygenase activity compared to untreated controls [3, 5] | inhibition of Cu2+-dependent stimulation of Aβ1-42-mediated oxygenase activity, dose dependence [3] | also measured
1 | CN(C)c1ccc2cc(C(=O)CC(N)C(=O)O)ccc2c1 (stereo not drawn) [Ald, β-(6′-dimethylamino-2′-naphthoyl)alanine, reference compound] | no change in turbidity | about 180 RFUs | no shift | 535 |  |  |  |  | 
2 | O=[N+]([O-])[O-].O=[N+]([O-])[O-].[Cu+2] [Cu(NO3)2, copper (II) nitrate hydrate, reference compound] |  |  |  |  | 500 |  |  |  | 
3 | [Cl][Cu][Cl] [CuCl2, copper (II) chloride, reference compound] |  |  |  |  | > 500 |  |  |  | 
4 | CCCCCC=CCC=CCCCCCCCC(=O)OCC(COP(=O)(O)OCC(O)COP(=O)(O)OCC(COC(=O)CCCCCCCC=CCC=CCCCCC)OC(=O)CCCCCCCC=CCC=CCCCCC)OC(=O)CCCCCCCC=CCC=CCCCCC (stereo not drawn) [TLCL, 1,1′,2,2′-tetralinoleoyl cardiolipin, reference compound] |  |  |  |  |  |  |  |  | stimulation of Aβ1-42-mediated oxygenase activity in the presence of Cu2+ ions by phospholipid [3, 5]: capable of stimulating
5 | D-Arg-2′,6′-Dmt-Lys-Ald-NH2 [[ald]SS-31] | six-fold increase |  | blue shift | 465 |  | 90 | complete inhibition | dose dependent | incubation time resulting in formation of Aβ fibrils (Aβ1-42 oligomers [4]; natural fibrillation takes at least seven days): 25 min; increase in the rate of fibril formation (Aβ1-42 oligomers [4]; versus natural fibrillation): 400 fold; emission maximum (λmax) before Aβ oligomers (Aβ1-42 oligomers [2]; 1 μM, λex=360 nm, 20 mM Hepes pH 7.4, no Aβ): 535 nm
6 | D-Arg-2′,6′-Dmt-Lys-Phe-NH2 [SS-31] | no change in turbidity | about 180 RFUs |  |  |  | 90 | complete inhibition | dose dependent | 
